Assays:
[1] = tested on: Escherichia coli (MTCC2412); test: Agar well diffusion antibacterial activity; type: cell-based; settings: for Zone of inhibition, Escherichia coli: compound 1 mg mL^−1, radius of inhibition zone
[2] = tested on: Bacillus cereus (MTCC2128); test: Agar well diffusion antibacterial activity; type: cell-based; settings: for Zone of inhibition, Bacillus cereus: 100 μl, compound 1 mg mL^−1, radius of inhibition zone; for inhibitory activity against Bacillus cereus (in words): 1 mg mL^−1
Acinetobacter baumannii = settings: cited from earlier work
Enterococcus faecium = settings: at the concentration tested; cited from earlier work
Staphylococcus = settings: at the concentration tested; cited from earlier work

Nc1ncnc2c1cnn2C=C1CC1(CO)CO [10a (E&Z), (2-((4-amino-1H-pyrazolo[3,4-d]pyrimidin-1-yl)methylene)cyclopropane-1,1-diyl) dimethanol]
Zone of inhibition, Escherichia coli ([1]; 100 μl, listed as 10a): 1.2 ± 0.15 mm | Zone of inhibition, Bacillus cereus ([2]; listed as 10a): 2.2 ± 0.25 mm

Nc1ncnc2c1cnn2C=C1CC1(CO)CO [10a (E-Isomer), (2-((4-amino-1H-pyrazolo[3,4-d]pyrimidin-1-yl)methylene)cyclopropane-1,1-diyl) dimethanol]
zone of inhibition against Escherichia coli (in words) ([1]; 1 mg mL^−1): zone of inhibition was observed | Zone of inhibition, Escherichia coli ([1]; 75 μl): 0.9 ± 0.05 mm | inhibitory activity against Bacillus cereus (in words) [2]: showed inhibitory activity

Nc1ncnc2c1cnn2C=C1CC1(CO)CO [10a (Z-Isomer), (2-((4-amino-1H-pyrazolo[3,4-d]pyrimidin-1-yl)methylene)cyclopropane-1,1-diyl) dimethanol]
Zone of inhibition, Escherichia coli ([1]; 75 μl): 0.9 ± 0.05 mm | Zone of inhibition, Escherichia coli ([1]; 100 μl): 1.2 ± 0.15 mm

Nc1ncnc2c1c(I)nn2C=C1CC1(CO)CO [10b (E&Z), (2-((4-amino-3-iodo-1H-pyrazolo[3,4-d]pyrimidin-1-yl)methylene)cyclopropane-1,1-diyl)dimethanol]
inhibitory activity against Bacillus cereus (in words) [2]: showed inhibitory activity | Zone of inhibition, Bacillus cereus ([2]; listed as 10b): 1.4 ± 0.1 mm

Nc1ncnc2c1c(I)nn2C=C1CC1(CO)CO [10b (Z-Isomer), (2-((4-amino-3-iodo-1H-pyrazolo[3,4-d]pyrimidin-1-yl)methylene)cyclopropane-1,1-diyl)dimethanol]
Zone of inhibition, Bacillus cereus [2]: 2.2 ± 0.25 mm

Nc1ncnc2c1c(-c1ccc(Oc3ccccc3)cc1)nn2C=C1CC1(CO)CO [10c (E&Z), (2-((4-amino-3-(4-phenoxyphenyl)-1H-pyrazolo[3,4-d]pyrimidin-1-yl)methylene)cyclopropane-1,1-diyl) dimethanol]
inhibitory activity against Bacillus cereus (in words) [2]: showed inhibitory activity

CC(C)=CCCC1(C)C(CC=C(C)C)CC23CCC(C)(C)OC2=C(C(=O)c2ccc(O)c(O)c2)C(=O)C1(CC=C(C)C)C3=O (centres unmarked) [schomburgkianone I]
activity against Acinetobacter baumannii (in words) (Acinetobacter baumannii): no activity | inhibitory effect on Enterococcus faecium (in words) (Enterococcus faecium): exhibited inhibitory effects | inhibitory effect on Staphylococcus (in words) (Staphylococcus): exhibited inhibitory effects
